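Here, GI50 denotes the concentration required for 50% inhibition of growth. TGI marks complete inhibition of growth.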
How the values were obtained:
Assay in all cases: inhibition of tumour cell growth, NCI panel, 384-well format
MDA-MB-468 breast = test system: MDA-MB-468 breast
OVCAR-8 ovarian = test system: OVCAR-8 ovarian
U251 glioblastoma = test system: U251 glioblastoma
SNB-19 CNS = test system: SNB-19 CNS
CAKI-1 renal = test system: CAKI-1 renal
NCI-H460 NSCLC = test system: NCI-H460 NSCLC
NCI-H23 lung = test system: NCI-H23 lung
M14 melanoma = test system: M14 melanoma
SF-268 CNS = test system: SF-268 CNS
MOLT-4 leukemia = test system: MOLT-4 leukemia
HOP-92 NSCLC = test system: HOP-92 NSCLC
A549 NSCLC = test system: A549 NSCLC
SNB-75 CNS = test system: SNB-75 CNS
NCI-H322M lung = test system: NCI-H322M lung
UO-31 renal = test system: UO-31 renal
OVCAR-4 ovarian = test system: OVCAR-4 ovarian
EKVX NSCLC = test system: EKVX NSCLC
UACC-62 melanoma = test system: UACC-62 melanoma
MDA-MB-435 melanoma = test system: MDA-MB-435 melanoma
RPMI-8226 leukemia = test system: RPMI-8226 leukemia
NCI-H522 lung = test system: NCI-H522 lung
786-0 renal = test system: 786-0 renal
LOX IMVI melanoma = test system: LOX IMVI melanoma
HS 578T breast = test system: HS 578T breast
SW-620 colon = test system: SW-620 colon
HOP-62 NSCLC = test system: HOP-62 NSCLC
KM12 colon = test system: KM12 colon
NCI/ADR-RES ovarian = test system: NCI/ADR-RES ovarian
K-562 leukemia = test system: K-562 leukemia
HT29 colon = test system: HT29 colon
SK-MEL-2 melanoma = test system: SK-MEL-2 melanoma
SK-OV-3 ovarian = test system: SK-OV-3 ovarian
CCRF-CEM leukemia = test system: CCRF-CEM leukemia
BT-549 breast = test system: BT-549 breast
IGROV1 ovarian = test system: IGROV1 ovarian
DU-145 prostate = test system: DU-145 prostate
NCI-H226 lung = test system: NCI-H226 lung
TK-10 renal = test system: TK-10 renal
PC-3 prostate = test system: PC-3 prostate
SK-MEL-28 melanoma = test system: SK-MEL-28 melanoma
SR leukemia = test system: SR leukemia
OVCAR-5 ovarian = test system: OVCAR-5 ovarian
COLO 205 colon = test system: COLO 205 colon
HCT-15 colon = test system: HCT-15 colon
RXF 393 renal = test system: RXF 393 renal
UACC-257 melanoma = test system: UACC-257 melanoma
MDA-MB-231 breast = test system: MDA-MB-231 breast

O=C(NC[C@H](O)CN1CCc2ccccc2C1)c1cc(NC2COC2)ncn1
GI50 (MDA-MB-468 breast): > 100 µM | TGI (MDA-MB-468 breast): > 100 µM | GI50 (OVCAR-8 ovarian): > 100 µM | TGI (OVCAR-8 ovarian): > 100 µM | GI50 (U251 glioblastoma): > 100 µM | TGI (U251 glioblastoma): > 100 µM | GI50 (SNB-19 CNS): > 100 µM | TGI (SNB-19 CNS): > 100 µM | GI50 (CAKI-1 renal): > 100 µM | TGI (CAKI-1 renal): > 100 µM | GI50 (NCI-H460 NSCLC): 6 µM | TGI (NCI-H460 NSCLC): > 100 µM | GI50 (NCI-H23 lung): > 100 µM | TGI (NCI-H23 lung): > 100 µM | GI50 (M14 melanoma): > 100 µM | TGI (M14 melanoma): > 100 µM | GI50 (SF-268 CNS): > 100 µM | TGI (SF-268 CNS): > 100 µM | GI50 (MOLT-4 leukemia): 0.0768 µM | GI50 (HOP-92 NSCLC): > 100 µM | TGI (HOP-92 NSCLC): > 100 µM | GI50 (A549 NSCLC): > 100 µM | TGI (A549 NSCLC): > 100 µM | GI50 (SNB-75 CNS): > 100 µM | TGI (SNB-75 CNS): > 100 µM | GI50 (NCI-H322M lung): > 100 µM | TGI (NCI-H322M lung): > 100 µM | GI50 (UO-31 renal): > 100 µM | TGI (UO-31 renal): > 100 µM | GI50 (OVCAR-4 ovarian): 21.8 µM | TGI (OVCAR-4 ovarian): > 100 µM | GI50 (EKVX NSCLC): > 100 µM | TGI (EKVX NSCLC): > 100 µM | GI50 (UACC-62 melanoma): > 100 µM | TGI (UACC-62 melanoma): > 100 µM | GI50 (MDA-MB-435 melanoma): > 100 µM | TGI (MDA-MB-435 melanoma): > 100 µM | GI50 (RPMI-8226 leukemia): > 47.7 µM | TGI (RPMI-8226 leukemia): > 100 µM | GI50 (NCI-H522 lung): > 100 µM | TGI (NCI-H522 lung): > 100 µM | GI50 ([…]-0 renal): > 100 µM | TGI (786-0 renal): > 100 µM | GI50 (LOX IMVI melanoma): > 100 µM | TGI (LOX IMVI melanoma): > 100 µM | GI50 (HS 578T breast): > 100 µM | TGI (HS 578T breast): > 100 µM | GI50 (SW-620 colon): > 100 µM | TGI (SW-620 colon): > 100 µM | GI50 (HOP-62 NSCLC): > 100 µM | TGI (HOP-62 NSCLC): > 100 µM | GI50 (KM12 colon): > 42.7 µM | TGI (KM12 colon): > 100 µM | GI50 (NCI/ADR-RES ovarian): > 100 µM | TGI (NCI/ADR-RES ovarian): > 100 µM | GI50 (K-562 leukemia): > 100 µM | TGI (K-562 leukemia): > 100 µM | GI50 (HT29 colon): > 100 µM | TGI (HT29 colon): > 100 µM | GI50 (SK-MEL-2 melanoma): > 100 µM | TGI (SK-MEL-2 melanoma): > 100 µM | GI50 (SK-OV-3 ovarian): > 100 µM | TGI (SK-OV-3 ovarian): > 100 µM | GI50 (CCRF-CEM leukemia): > 100 µM | TGI (CCRF-CEM leukemia): > 100 µM | GI50 (BT-549 breast): > 100 µM | TGI (BT-549 breast): > 100 µM | GI50 (IGROV1 ovarian): > 100 µM | TGI (IGROV1 ovarian): > 100 µM | GI50 (DU-145 prostate): > 100 µM | TGI (DU-145 prostate): > 100 µM | GI50 (NCI-H226 lung): > 100 µM | TGI (NCI-H226 lung): > 100 µM | GI50 (TK-10 renal): > 100 µM | TGI (TK-10 renal): > 100 µM | GI50 (PC-3 prostate): > 100 µM | TGI (PC-3 prostate): > 100 µM | GI50 (SK-MEL-28 melanoma): > 100 µM | TGI (SK-MEL-28 melanoma): > 100 µM | GI50 (SR leukemia): 0.117 µM | TGI (SR leukemia): 8.35 µM | GI50 (OVCAR-5 ovarian): > 100 µM | TGI (OVCAR-5 ovarian): > 100 µM | GI50 (COLO 205 colon): > 100 µM | TGI (COLO 205 colon): > 100 µM | GI50 (HCT-15 colon): > 100 µM | TGI (HCT-15 colon): > 100 µM | GI50 (RXF 393 renal): > 100 µM | TGI (RXF 393 renal): > 100 µM | GI50 (UACC-257 melanoma): > 100 µM | TGI (UACC-257 melanoma): > 100 µM | GI50 (MDA-MB-231 breast): > 100 µM | TGI (MDA-MB-231 breast): > 100 µM

CN1CCN(c2ccc(Nc3cc(-c4cccc(-n5ccc6cc(C7CC7)cc(F)c6c5=O)c4CO)cn(C)c3=O)nc2)CC1
GI50 (MDA-MB-468 breast): 1.7 µM | TGI (MDA-MB-468 breast): 3.16 µM | GI50 (OVCAR-8 ovarian): 1.79 µM | TGI (OVCAR-8 ovarian): 3.56 µM | GI50 (U251 glioblastoma): 2.2 µM | TGI (U251 glioblastoma): 4.54 µM | GI50 (SNB-19 CNS): 3.96 µM | TGI (SNB-19 CNS): 13.5 µM | GI50 (CAKI-1 renal): 2.18 µM | TGI (CAKI-1 renal): 5.6 µM | GI50 (NCI-H460 NSCLC): 2.06 µM | TGI (NCI-H460 NSCLC): 4.14 µM | GI50 (NCI-H23 lung): 2.73 µM | TGI (NCI-H23 lung): 8.14 µM | GI50 (M14 melanoma): 2.01 µM | TGI (M14 melanoma): 3.54 µM | GI50 (SF-268 CNS): 2.4 µM | TGI (SF-268 CNS): 7.46 µM | GI50 (MOLT-4 leukemia): 1.51 µM | TGI (MOLT-4 leukemia): 2.85 µM | GI50 (HOP-92 NSCLC): 2.11 µM | TGI (HOP-92 NSCLC): 4.78 µM | GI50 (A549 NSCLC): 3.1 µM | TGI (A549 NSCLC): 10.5 µM | GI50 (SNB-75 CNS): 1.73 µM | TGI (SNB-75 CNS): 3.44 µM | GI50 (NCI-H322M lung): 3.91 µM | TGI (NCI-H322M lung): 9.99 µM | GI50 (UO-31 renal): 1.77 µM | TGI (UO-31 renal): 3.19 µM | GI50 (OVCAR-4 ovarian): 1.63 µM | TGI (OVCAR-4 ovarian): 3.11 µM | GI50 (EKVX NSCLC): 2.03 µM | TGI (EKVX NSCLC): 4.57 µM | GI50 (UACC-62 melanoma): 1.74 µM | TGI (UACC-62 melanoma): 3.16 µM | GI50 (MDA-MB-435 melanoma): 3.59 µM | TGI (MDA-MB-435 melanoma): 11.7 µM | GI50 (RPMI-8226 leukemia): 2.06 µM | TGI (RPMI-8226 leukemia): 3.56 µM | GI50 (NCI-H522 lung): 2.05 µM | TGI (NCI-H522 lung): 4.02 µM | GI50 ([…]-0 renal): 1.69 µM | TGI (786-0 renal): 3.39 µM | GI50 (LOX IMVI melanoma): 2.04 µM | TGI (LOX IMVI melanoma): 3.52 µM | GI50 (HS 578T breast): 1.82 µM | TGI (HS 578T breast): 3.48 µM | GI50 (SW-620 colon): 2.61 µM | TGI (SW-620 colon): 6.97 µM | GI50 (HOP-62 NSCLC): 2.77 µM | TGI (HOP-62 NSCLC): 7.57 µM | GI50 (KM12 colon): 2.4 µM | TGI (KM12 colon): 5.1 µM | GI50 (NCI/ADR-RES ovarian): 2.51 µM | TGI (NCI/ADR-RES ovarian): 5.66 µM | GI50 (K-562 leukemia): 1.77 µM | TGI (K-562 leukemia): 3.33 µM | GI50 (HT29 colon): 1.72 µM | TGI (HT29 colon): 3.19 µM | GI50 (SK-MEL-2 melanoma): 1.8 µM | TGI (SK-MEL-2 melanoma): 3.34 µM | GI50 (SK-OV-3 ovarian): 2.59 µM | TGI (SK-OV-3 ovarian): 6.61 µM | GI50 (CCRF-CEM leukemia): 1.78 µM | TGI (CCRF-CEM leukemia): 3.18 µM | GI50 (BT-549 breast): 2.24 µM | TGI (BT-549 breast): 5.29 µM | GI50 (IGROV1 ovarian): 2.89 µM | TGI (IGROV1 ovarian): 9.19 µM | GI50 (DU-145 prostate): 2.97 µM | TGI (DU-145 prostate): 9.08 µM | GI50 (NCI-H226 lung): 1.99 µM | TGI (NCI-H226 lung): 4.03 µM | GI50 (TK-10 renal): 2.32 µM | TGI (TK-10 renal): 5.77 µM | GI50 (PC-3 prostate): 3.78 µM | TGI (PC-3 prostate): 12.1 µM | GI50 (SK-MEL-28 melanoma): 1.71 µM | TGI (SK-MEL-28 melanoma): 3.11 µM | GI50 (SR leukemia): 1.58 µM | TGI (SR leukemia): 2.94 µM | GI50 (OVCAR-5 ovarian): 1.94 µM | TGI (OVCAR-5 ovarian): 3.97 µM | GI50 (COLO 205 colon): 2.02 µM | TGI (COLO 205 colon): 3.69 µM | GI50 (HCT-15 colon): 2.45 µM | TGI (HCT-15 colon): 7.4 µM | GI50 (RXF 393 renal): 1.6 µM | TGI (RXF 393 renal): 3.11 µM | GI50 (UACC-257 melanoma): 1.74 µM | TGI (UACC-257 melanoma): 3.13 µM | GI50 (MDA-MB-231 breast): 1.95 µM | TGI (MDA-MB-231 breast): 3.92 µM
